Our source for the logP values is the SangsterLogP compilation.

Broadly, the logP is a log measure of how a compound divides between an organic and an aqueous phase. Read a low logP as a more hydrophilic compound.

Assay in one data set: not given
`CC1=C[C@H](O)[C@H]2C[C@@H]1C2(C)C` displayed a logP of 3.16.
In turn, `CC1(C)[C@H]2CC=C(CO)[C@@H]1C2` had a log partition coefficient (logP) of 3.22.
Same read-out and setting: the figure for `CC(C)=C1CC[C@@H](C)CC1=O` is 3.08; for `C=C(C)[C@@H]1CC=C(CO)CC1` it is 3.17; for `CC1=CC(=O)C(C(C)C)CC1` (configuration not stated) it is 2.85.
The same measure, in the same setting: as for `CC1(C)[C@H]2CC[C@@H](CO)[C@@H]1C2`, the figure is 3.41.
As to `C/C=C/c1ccc(O)c(OC)c1`, the logP came to 3.04.
On the same count and under the same terms, the figure for `C=CCc1ccc(OC)c(OC)c1` is 3.45; for `C=CC1(C)CCC(C(C)(C)O)O1` (configuration not stated) it is 2.43.
In turn, `C=C(C)C1CCC2(C)OC2C1` (configuration not stated) came in with a logP of 3.2.
On the same count and under the same terms, the figure for `C=C(C)[C@@H]1CC=C(C=O)CC1` is 3.13; for `CC1(C)[C@@H]2CC=C(C=O)[C@H]1C2` it is 2.98; for `Cc1ccc(C(C)C)cc1O` it is 3.49.
Same read-out and setting: the figure for `CC12CCC(CC1)C(C)(C)O2` is 2.84.
Still for that read-out and setting: as for `CC(=O)OC1C[C@H](C)CCC1C(C)C` (some centres not stated), the figure is 4; as for `CC12CC[C@@H](C1)C(C)(C)C2=O` (stereo in doubt), 3.17.
The compound `CC1(C)C2CCC1(C)C(O)C2` (configuration not stated) showed a logP of 3.01. The logP values of the last two compounds are within 0.2 log units of each other.
Still for that read-out and setting: as for `CC1=CCC(=C(C)C)CC1`, the figure is 4.24; as for `CC(=O)/C=C/[C@H]1C(C)=CCCC1(C)C`, 3.85.
Compound `CC(=O)C=CC1=C(C)CCCC1(C)C` registered a lipophilicity (logP) of 3.84.
Take `CC1=CCC2C(C1)C2(C)C` (configuration not stated): the logP was found to be 4.38.
Still for that read-out and setting: the figure for `CC1=CC2C(CC1)C2(C)C` (configuration not stated) is 4.44.
`C=CC(C)(CCC=C(C)C)OC(C)=O` (configuration not stated) came in with a logP of 3.93.
In the case of `CC(C)C12CCC(C)(CC1)O2`, the logP worked out at 2.97.
In turn, `C=C(C)[C@H]1CC[C@H](C)[C@@H](O)C1` gave a log partition coefficient (logP) of 3.21.
`CC1(C)C2CCC(CN)C1C2` (configuration not stated) came in with a logP of 2.05.
On the same count and under the same terms, the figure for `CC1=CCC2[C@H](C1=O)C2(C)C` (some centres not stated) is 2.42; for `CC1=CC=C(C(C)C)CC1` it is 4.25; for `CC1=CC(=O)[C@H]2CC1C2(C)C` it is 2.23.
The same measure, in the same setting: as for `CC(C)=CCC/C(C)=C/CO`, the figure is 3.56; as for `CC(C)=CCC[C@@H](C)CC=O`, 3.83; as for `CC12CCC(CC1=O)C2(C)C` (configuration not stated), 2.74.
As to `CC(=O)OC/C=C(\C)CCC=C(C)C`, the logP amounted to 4.04.
Same read-out and setting: as for `CC(C)[C@@H]1CC[C@@H](C)CC1=O`, the figure is 3.05.

Another data set is described as follows: method code SF-GLC, from DOI: 10.1016/s0021-9673(99)01009-2, PMID: 10669289.
Turning to `CC(=O)OC(C)(C)C1C=CC(C)CC1` (configuration not stated), the logP worked out at 3.96.
In turn, `CC1=CCC(O)(C(C)C)CC1` (configuration not stated) came in with a logP of 2.8.
Same read-out and setting: as for `C=C(C)[C@H]1CC=C(C)C(=O)C1`, the figure is 2.71; as for `CC1=CCC(C(C)(C)O)CC1O` (configuration not stated), 1.11; as for `C=C(C)C1CC=C(C)C(O)C1` (configuration not stated), 2.85.
`CC1=CCC(C(C)(C)O)CC1` (configuration not stated) yielded a logP of 3.28.
`C=C(C)C1CCC(C)C(=O)C1` (configuration not stated) displayed a logP of 2.85.
Same read-out and setting: as for `CC1=CCC2C[C@H]1C2(C)C`, the figure is 4.44.
